Results published in US20100183561A1, “Biological therapeutic compositions and methods thereof” (ARTERIOCYTE MEDICAL SYSTEMS, priority 2008, published 2010).
Counter-ions that a name gives are not always drawn.

Assays:
[1] = Thrombin activation of antibiotic-enriched bovine PRP, visual observation; type: physicochemical; conditions: for Observation of PRP/Platelet Gel: gelling / Observation of PRP/Platelet Gel: precipitation or aggregation: antibiotic ~75 ug/ml final in bovine PRP, 10% CaCl2 solution, ambient conditions; for Effect on activation of PRP and gel formation / properties of PRP: smaller quantities (sufficient for local application) dissolved in CaCl2 solution, bovine PRP
Excerpt: Study Design: This example evaluated the appearance and characteristics of antibiotics-enriched bovine PRP. There were two variables in this study: 1) choice of antibiotics, and 2) presence/absence of thrombin. Two antibiotics were used to couple PRP in this study: 1) Vancomycin and 2) Cefazolin. Thrombin, a common reagent for activation of fibrinogen in PRP (for use as a gel would sealant), was used to activate platelet gel-antibiotics/PRP mixture formation, and compared to a mixture not activated by thrombin.
Preparation of Bovine PRP: 60 ml of Bovine blood (anti-coagulant added) was processed with the Magellan® system to obtain 6 ml of bovine PRP. Bovince PRP was stored in a refrigerator.
Dissolution of Antibiotics in CaCl2 solution: Initial target dose of antibiotics was based on body weight and was estimated at 1.5 mg/kg body weight per unit of PRP, or 105 mg for a 70 kg adult. 3 ml PRP was prepared from 60 ml Bovine Blood with the Magellan® System, resulting in a 2× standard concentration. 105 mg was dissolved into 3 mL of saline solution. 1 ml each of PRP Vancomycin/saline solution were combined to yield a product approximating standard PRP, containing desired amount of Vancomycin.
Vancomycin: To achieve the revised target dose of 75 ug/ml, 5 mg antibiotic was added per 6 ml 10% w/v CaCl2 solution used to reconstitute thrombin for activation of 6 ml PRP.
5 mg Vancomycin hydrochloride (Acros Organics) was dissolved into 6 ml 10% w/v CaCl2 solution at ambient conditions for a concentration of 833 ug/ml. Agitation was necessary to properly dissolve Vancomycin due to its large grain sizes.
Cefazolin: 5 mg Cefazolin hydrochloride (Alexis) was dissolved into 6 ml 10% w/v CaCl2 solution at ambient conditions for a concentration of 833 ug/ml. Slight agitation was necessary to dissolve Cefazolin.
1 kU of bovine thrombin was dissolved into 1 ml of Antibiotic/10% w/v CaCl2 solution or Vancomycin/10% w/v CaCl2 solution.
Preparation of Cefazolin- or Vancomycin-Coupled PRP: 0.6 ml of the bovine thrombin/Vancomycin/10% w/v CaCl2 solution was added to 6 ml of bovine PRP to obtain 6.6 ml of Vancomycin coupled PRP gel to produce an activated gel with a final concentration of ˜75 ug/ml.
For controls, 0.6 ml of the Vancomycin/10% w/v CaCl2 solution (without thrombin) was added to 6 ml of bovine PRP to obtain 6.6 ml of Vancomycin coupled PRP gel to produce an activated gel with a final concentration of ˜75 ug/ml.
Evaluation of Cefazolin- or Vancomycin-Coupled PRP: After mixing, the antibiotic-enriched PRP with and without thrombin were left on bench top. Visual observation was used to evaluate the appearance and characteristics of the mixture material. This process was conducted under ambient conditions.

[2] = as above; type: physicochemical; conditions: initial dose 1.05 g per unit PRP, 1 ml of 2× concentration bovine PRP + Vancomycin solution, no thrombin, Hydrochloride

Row | Structure (SMILES) | Observation of PRP/Platelet Gel: gelling ([1]; Thrombin: Yes) | Observation of PRP/Platelet Gel: precipitation or aggregation ([1]; Thrombin: Yes) | Effect on activation of PRP and gel formation / properties of PRP [1] | Appearance of PRP combined with antibiotic solution at initial (systemic-order) dose [2] | Appearance of PRP combined with antibiotic solution at initial (systemic-order) dose ([2]; listed as vancomycin) | Observation of PRP/Platelet Gel: precipitation or aggregation ([1]; Thrombin: No)
1 | Cc1nnc(SCC2=C(C(=O)[O-])N3C(=O)[C@@H](NC(=O)Cn4cnnn4)[C@H]3SC2)s1.[Na+] [Cefazolin, Cefazolin Sodium Salt] | Mixture gels immediately within minutes, | no precipitation or aggregation observed. | did not appear to alter the properties PRP | – | – | –
2 | CN[C@H](CC(C)C)C(=O)N[C@H]1C(=O)N[C@@H](CC(N)=O)C(=O)N[C@H]2C(=O)N[C@H]3C(=O)N[C@H](C(=O)N[C@H](C(=O)O)c4cc(O)cc(O)c4-c4cc3ccc4O)[C@H](O)c3ccc(c(Cl)c3)Oc3cc2cc(c3O[C@@H]2O[C@H](CO)[C@@H](O)[C@H](O)[C@H]2O[C@H]2C[C@](C)(N)[C@H](O)[C@H](C)O2)Oc2ccc(cc2Cl)[C@H]1O [Vancomycin, Vancomycin Hydrochloride] | Mixture gels immediately within minutes; | – | did not interfere with or premarturely initiate activation of PRP and gel formation | Immediate aggregation of PRP into a solid | rapid formation of heterogenous solids | white solid precipitates forming upon
